These results are taken from patent US12528812B2 (Genentech, Inc., priority 2020, dated 2026).

The target of experiment [1] is Recombinant human JAK2 kinase domain protein (Residues 812-1132) (Homo sapiens, UniProt O60674). Briefly: JAK2 biochemical assay (LabChip mobility shift, Ki). Particulars: Biochem JAK2 Ki.
Protocol: The in vitro biochemical assays quantify JAK-catalyzed phosphorylation of a synthetic peptide, as detected using a LabChip® EZ Reader II microfluidic mobility shift instrument (PerkinElmer; Waltham, MA). […] Y-1B is fluorescently labeled on the N-terminus with 5-FAM (5-carboxyfluorescein) and contains a single tyrosine residue (Y) that can be phosphorylated by JAK activity. The substrate peptide stock is prepared in DMSO at 5 mM. […] In each titration experiment, test compound was tested in duplicate at each of the twelve concentrations. Blank reactions contained ATP, peptide, and DMSO, but no JAK or test compound, whereas uninhibited control reactions contained ATP, peptide, JAK, and DMSO, but no test compound.
Peptide plus ATP mixture (24 μL) was added to 1 μL of test compound in DMSO (or DMSO alone). The reactions were initiated by adding 25 μL of JAK enzyme to the inhibitor/peptide/ATP mixture before thoroughly mixing the resultant solution. Reactions were incubated at room temperature (22° C.-23° C.) in a final volume of 50 μL per well in 384-well plates. After a 30-minute incubation, the reactions were stopped by adding 25 μL of 150 mM ethylenediaminetetraacetic acid in 100 mM HEPES buffer (pH 7.2) containing 0.015% Brij 35 to each well.
In each reaction, the residual Y-1B substrate and the phospho-peptide product generated were separated using the EZ Reader II instrument. Electrophoretic separation of molecules of product from molecules of substrate was achieved using downstream and upstream voltages of −500 and −2600 V, respectively, at an operating pressure of −1.3 psi.
The extent (or percent) of conversion of substrate to product was calculated from the corresponding peak heights in the electropherogram using HTS Well Analyzer software, Version 5.2 (PerkinElmer), and the following equation (Equation 1): conversion=[P÷(S+P)]×100 Equation 1% where S and P represent the peak heights of the substrate and product, respectively. After any baseline signal from blank wells containing no JAK was subtracted from the signal of all test wells, the % conversion data were converted to fractional activity as shown in Equation 2, where vi and vo are the % conversion in the presence and absence of test compound, respectively.
For experiment [2], the target named is T1, recombinant human JAK1 kinase domain protein (Residues 854-1154) (Homo sapiens, UniProt P23458).
T1 construct: human JAK1 kinase domain protein (Residues 854-1154); purchased Proteros Biostructures GmbH (Martinsried, Germany); host or cells: insect cells
Put plainly: JAK1 biochemical assay (LabChip mobility shift, Ki). Particulars: read-out: Biochem JAK1 Ki.

Experiment [3] has as its system IL-13-stimulated STAT6 phosphorylation in human lung bronchial epithelial BEAS-2B cell line. Briefly: P-STAT6 BEAS-2B + IL-13 cell assay. It is filed as cell-based. Particulars: Homo sapiens, BEAS-2B, BEAS2B cells, IL13 stimulation; read-out: Cellular JAK1 PSTAT6 BEAS2B + IL13. Put shortly:
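Phospho-STAT6 (Tyr641) was quantified in lysates by MSD electrochemiluminescence after human IL-13 challenge (250 ng/mL stock, 15 min, 37 °C). Before that, BEAS-2B cells cultured 48 h had 1 h compound exposure over 10 concentrations. Percent of control was fitted to a four-parameter logistic model to give IC50.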

Chain of Recombinant human JAK2 kinase domain protein (Residues 812-1132) (O60674 812-1132): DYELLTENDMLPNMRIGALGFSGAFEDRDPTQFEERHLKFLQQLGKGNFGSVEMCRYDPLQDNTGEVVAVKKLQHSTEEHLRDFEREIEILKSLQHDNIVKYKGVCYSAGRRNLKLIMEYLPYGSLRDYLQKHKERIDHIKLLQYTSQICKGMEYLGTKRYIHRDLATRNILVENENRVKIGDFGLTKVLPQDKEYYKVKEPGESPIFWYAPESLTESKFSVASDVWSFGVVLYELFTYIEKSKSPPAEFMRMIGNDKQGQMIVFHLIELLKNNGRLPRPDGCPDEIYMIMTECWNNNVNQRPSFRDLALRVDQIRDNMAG
T1 sequence (P23458 854-1154): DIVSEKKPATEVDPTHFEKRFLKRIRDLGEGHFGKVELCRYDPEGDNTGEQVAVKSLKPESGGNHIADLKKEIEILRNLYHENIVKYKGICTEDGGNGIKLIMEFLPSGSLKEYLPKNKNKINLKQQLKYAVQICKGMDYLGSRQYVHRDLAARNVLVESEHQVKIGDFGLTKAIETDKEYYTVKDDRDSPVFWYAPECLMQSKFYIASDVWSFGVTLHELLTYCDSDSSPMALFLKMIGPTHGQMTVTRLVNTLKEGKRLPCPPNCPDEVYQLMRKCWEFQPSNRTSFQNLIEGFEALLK

For `Cn1cc(NC(=O)c2cnn3cccnc23)c(-c2cc(Oc3cncc(CN)c3)ccc2OC(F)F)n1` [Example 77, N-[3-[5-[[5-(aminomethyl)-3-pyridyl]oxy]-2-(difluoromethoxy)phenyl]-1-methyl-pyrazol-4-yl]pyrazolo[1,5-a]pyrimidine-3-carboxamide], the Ki came out at 2.5 nM in experiment [1] and 2.6 nM in experiment [2]. Also, the IC50 in experiment [3] came out at 33 nM.
With `Cn1cc(NC(=O)c2cnn3cccnc23)c(-c2cc(Oc3cccc([C@H]4CNCCO4)c3)ccc2OC(F)F)n1` (racemic) [Example 42, N-[3-[2-(difluoromethoxy)-5-[3-[rac-(2S)-morpholin-2-yl]phenoxy]phenyl]-1-methyl-pyrazol-4-yl]pyrazolo[1,5-a]pyrimidine-3-carboxamide], the figures for the Ki in experiment [1] and in experiment [2] were 0.39 nM and 0.37 nM, respectively. For the same molecule, the IC50 in experiment [3] worked out at 11 nM.
Taken in the same sequence, the figures for `CN1CC(O)(c2cccc(Oc3ccc(OC(F)F)c(-c4nn(C5COC5)cc4NC(=O)c4cnn5cccnc45)c3)c2)C1` [Example 100, N-[3-[2-(difluoromethoxy)-5-[3-(3-hydroxy-1-methyl-azetidin-3-yl)phenoxy]phenyl]-1-(oxetan-3-yl)pyrazol-4-yl]pyrazolo[1,5-a]pyrimidine-3-carboxamide] were 0.46 nM, 0.4 nM and 46 nM.
For `Cn1cc(NC(=O)c2cnn3cccnc23)c(-c2cc(Oc3cc(C(F)(F)F)cc(C4(O)CNC4)c3)ccc2OC(F)F)n1` [Example 105, N-[3-[2-(difluoromethoxy)-5-[3-(3-hydroxyazetidin-3-yl)-5-(trifluoromethyl)phenoxy]phenyl]-1-methyl-pyrazol-4-yl]pyrazolo[1,5-a]pyrimidine-3-carboxamide], in that order: 0.43 nM, 0.49 nM and 81 nM.
With `Cn1cc(NC(=O)c2cnn3cccnc23)c(-c2cc(Oc3cnn(C4CCNC4)c3)ccc2OC(F)F)n1` (racemic) [Example 139, N-[3-[2-(difluoromethoxy)-5-[1-[rac-(3R)-pyrrolidin-3-yl]pyrazol-4-yl]oxy-phenyl]-1-methyl-pyrazol-4-yl]pyrazolo[1,5-a]pyrimidine-3-carboxamide], the inhibition constant (Ki) is 1.5 nM in experiment [1] and 2 nM in experiment [2]. The IC50 in experiment [3] is 70 nM.
For `O=C(Nc1c[nH]nc1-c1cc(Oc2ccc3c(c2)CNCC3)ccc1OC(F)F)c1cnn2cccnc12` [Example 18, N-[3-[2-(difluoromethoxy)-5-(1,2,3,4-tetrahydroisoquinolin-7-yloxy)phenyl]-1H-pyrazol-4-yl]pyrazolo[1,5-a]pyrimidine-3-carboxamide], in that order: 0.17 nM, 0.17 nM and 32 nM.
In the case of `Cn1cc(NC(=O)c2cnn3cccnc23)c(-c2cc(Oc3ccc(CN4CCCC[C@@H]4CO)cc3)ccc2OC(F)F)n1` (racemic) [Example 166, N-[3-[2-(difluoromethoxy)-5-[4-[[rac-(2R)-2-(hydroxymethyl)-1-piperidyl]methyl]phenoxy]phenyl]-1-methyl-pyrazol-4-yl]pyrazolo[1,5-a]pyrimidine-3-carboxamide], the Ki in experiment [1] was determined as 0.99 nM; in experiment [2], 2.5 nM. The IC50 in experiment [3] was determined as 32 nM.
Take `Cn1cc(NC(=O)c2cnn3cccnc23)c(-c2cc(Oc3cccc(CN)n3)ccc2OC(F)F)n1` [Example 39, N-[3-[5-[[6-(aminomethyl)-2-pyridyl]oxy]-2-(difluoromethoxy)phenyl]-1-methyl-pyrazol-4-yl]pyrazolo[1,5-a]pyrimidine-3-carboxamide]: the Ki was 1.3 nM in experiment [1] and 1.5 nM in experiment [2]. Further, the IC50 in experiment [3] was 35 nM.
Take `CN1CCN(C(=O)Cn2cc(Oc3ccc(OC(F)F)c(-c4nn(C)cc4NC(=O)c4cnn5cccnc45)c3)cn2)CC1` [Example 90, N-[3-[2-(difluoromethoxy)-5-[1-[2-(4-methylpiperazin-1-yl)-2-oxo-ethyl]pyrazol-4-yl]oxy-phenyl]-1-methyl-pyrazol-4-yl]pyrazolo[1,5-a]pyrimidine-3-carboxamide]: the values for the Ki in experiment [1] and in experiment [2] were 0.31 nM and 0.59 nM, respectively. The IC50 in experiment [3] is 52 nM.
For `CN1CC(O)(c2cncc(Oc3ccc(OC(F)F)c(-c4nn(C)cc4NC(=O)c4cnn5cccnc45)c3)c2)C1` [Example 189, N-[3-[2-(difluoromethoxy)-5-[[5-(3-hydroxy-l-methyl-azetidin-3-yl)-3-pyridyl]oxy]phenyl]-1-methyl-pyrazol-4-yl]pyrazolo[1,5-a]pyrimidine-3-carboxamide], in that order: 0.39 nM, 0.57 nM and 78 nM.
For `Cc1ccc(Oc2ccc(OC(F)F)c(-c3nn(C[C@@H]4C[C@@H](F)CN4C)cc3NC(=O)c3cnn4cccnc34)c2)cc1C(=O)N(C)C` (racemic) [Example 89, N-[3-[2-(difluoromethoxy)-5-[3-(dimethylcarbamoyl)-4-methyl-phenoxy]phenyl]-1-[[rac-(2R,4S)-4-fluoro-l-methyl-pyrrolidin-2-yl]methyl]pyrazol-4-yl]pyrazolo[1,5-a]pyrimidine-3-carboxamide], in that order: 1.3 nM, 1.2 nM and 120 nM.
Regarding `Cn1cc(NC(=O)c2cnn3cccnc23)c(-c2cc(Oc3ccc(CN4CCCCC4CO)cc3)ccc2OC(F)F)n1` (racemic) [Example 167, N-[3-[2-(difluoromethoxy)-5-[4-[[rac-(2S)-2-(hydroxymethyl)-1-piperidyl]methyl]phenoxy]phenyl]-1-methyl-pyrazol-4-yl]pyrazolo[1,5-a]pyrimidine-3-carboxamide], the Ki came to 0.34 nM in experiment [1] and 1.9 nM in experiment [2]. The IC50 in experiment [3] came to 26 nM.
Taken in the same sequence, the figures for `Cn1cc(NC(=O)c2cnn3cccnc23)c(-c2cc(Oc3cc(CN)ccc3F)ccc2OC(F)F)n1` [Example 28, N-[3-[5-[5-(aminomethyl)-2-fluoro-phenoxy]-2-(difluoromethoxy)phenyl]-1-methyl-pyrazol-4-yl]pyrazolo[1,5-a]pyrimidine-3-carboxamide] were 0.21 nM, 0.19 nM and 19 nM.
For `Cc1ccc(Oc2ccc(OC(F)F)c(-c3nn(C)cc3NC(=O)c3cnn4cccnc34)c2)cc1C(=O)N1CCNCC1` [Example 54, N-[3-[2-(difluoromethoxy)-5-[4-methyl-3-(piperazine-1-carbonyl)phenoxy]phenyl]-1-methyl-pyrazol-4-yl]pyrazolo[1,5-a]pyrimidine-3-carboxamide], in that order: 0.42 nM, 0.43 nM and 58 nM.
For `Cc1nn(CCO)cc1Oc1ccc(OC(F)F)c(-c2nn(C)cc2NC(=O)c2cnn3cccnc23)c1` [Example 154, N-[3-[2-(difluoromethoxy)-5-[1-(2-hydroxyethyl)-3-methyl-pyrazol-4-yl]oxy-phenyl]-1-methyl-pyrazol-4-yl]pyrazolo[1,5-a]pyrimidine-3-carboxamide], the Ki in experiment [1] came to 0.29 nM; in experiment [2], 0.57 nM. Further, in experiment [3], the IC50 came out at 37 nM.
For `Cn1cc(NC(=O)c2cnn3cccnc23)c(-c2cc(Oc3cc(Cl)cc(C4(O)CNC4)c3)ccc2OC(F)F)n1` [Example 99, N-[3-[5-[3-chloro-5-(3-hydroxyazetidin-3-yl)phenoxy]-2-(difluoromethoxy)phenyl]-1-methyl-pyrazol-4-yl]pyrazolo[1,5-a]pyrimidine-3-carboxamide], in that order: 0.31 nM, 0.19 nM and 78 nM.
Taken in the same sequence, the figures for `Cc1ccc(Oc2ccc(OC(F)F)c(-c3nn(C)cc3NC(=O)c3cnn4cccnc34)c2)cc1C(=O)N1CCN(C)CC1` [Example 50, N-[3-[2-(difluoromethoxy)-5-[4-methyl-3-(4-methylpiperazine-1-carbonyl)phenoxy]phenyl]-1-methyl-pyrazol-4-yl]pyrazolo[1,5-a]pyrimidine-3-carboxamide] were 0.46 nM, 0.64 nM and 35 nM.
`NCc1cc(Oc2ccc(OC(F)F)c(-c3n[nH]cc3NC(=O)c3cnn4cccnc34)c2)ccc1F` [Example 19, N-[3-[5-[3-(aminomethyl)-4-fluoro-phenoxy]-2-(difluoromethoxy)phenyl]-1H-pyrazol-4-yl]pyrazolo[1,5-a]pyrimidine-3-carboxamide]: the Ki was found to be 0.28 nM in experiment [1] and 0.39 nM in experiment [2]. Further, the IC50 in experiment [3] worked out at 49 nM.
Consider `COCCNCc1cccc(Oc2ccc(OC(F)F)c(-c3nn(C)cc3NC(=O)c3cnn4cccnc34)c2)c1` [Example 27, N-[3-[2-(difluoromethoxy)-5-[3-[(2-methoxyethylamino)methyl]phenoxy]phenyl]-1-methyl-pyrazol-4-yl]pyrazolo[1,5-a]pyrimidine-3-carboxamide], for which the figures for the Ki in experiment [1] and in experiment [2] were 0.55 nM and 0.73 nM, respectively. The IC50 in experiment [3] is 20 nM.
Regarding `Cn1cc(NC(=O)c2cnn3cccnc23)c(-c2cc(Oc3ccnnc3)ccc2OC(F)F)n1` [Example 202, N-[3-[2-(difluoromethoxy)-5-pyridazin-4-yloxy-phenyl]-1-methyl-pyrazol-4-yl]pyrazolo[1,5-a]pyrimidine-3-carboxamide], the Ki came to 0.38 nM in experiment [1] and 0.68 nM in experiment [2]. Further, the IC50 in experiment [3] is 26 nM.
Taken in the same sequence, the figures for `Cn1cc(NC(=O)c2cnn3cccnc23)c(-c2cc(Oc3cccnn3)ccc2OC(F)F)n1` [Example 204, N-[3-[2-(difluoromethoxy)-5-pyridazin-3-yloxy-phenyl]-1-methyl-pyrazol-4-yl]pyrazolo[1,5-a]pyrimidine-3-carboxamide] were 1.4 nM, 2.2 nM and 56 nM.
